Reference: ChEMBL document CHEMBL4308841, “Synthesis, in vitro antiproliferative activity, and kinase inhibitory effects of pyrazole-containing diarylureas and diarylamides” (Eur J Med Chem, 2018)

How the values were obtained:
[1] = tested on: MOLT-4; test: Growth inhibition of human MOLT4 cells incubated for 48 hrs by sulforhodamine B assay; type: functional, cell-based; conditions: MOLT-4, 48 h
[2] = tested on: SR; test: Growth inhibition of human SR cells incubated for 48 hrs by sulforhodamine B assay; type: functional, cell-based
[3] = tested on: NCI-H226; test: Growth inhibition of human NCI-H226 cells incubated for 48 hrs by sulforhodamine B assay; type: functional, cell-based; conditions: NCI-H226, 48 h
[4] = tested on: SF-268; test: Growth inhibition of human SF268 cells incubated for 48 hrs by sulforhodamine B assay; type: functional, cell-based; conditions: SF-268, 48 h
[5] = tested on: SF-539; test: Growth inhibition of human SF539 cells incubated for 48 hrs by sulforhodamine B assay; type: functional, cell-based; conditions: SF-539, 48 h
[6] = tested on: SK-MEL-2; test: Growth inhibition of human SK-MEL-2 cells incubated for 48 hrs by sulforhodamine B assay; type: functional, cell-based; conditions: SK-MEL-2, 48 h
[7] = tested on: SK-MEL-5; test: Growth inhibition of human SK-MEL-5 cells incubated for 48 hrs by sulforhodamine B assay; type: functional, cell-based; conditions: SK-MEL-5, 48 h
[8] = tested on: 786-0; test: Growth inhibition of human 786-0 cells incubated for 48 hrs by sulforhodamine B assay; type: functional, cell-based; conditions: 786-0, 48 h
[9] = tested on: MCF7; test: Growth inhibition of human MCF7 cells incubated for 48 hrs by sulforhodamine B assay; type: functional, cell-based; conditions: MCF7, 48 h
[10] = tested on: BT-549; test: Growth inhibition of human BT549 cells incubated for 48 hrs by sulforhodamine B assay; type: functional, cell-based; conditions: BT-549, 48 h
[11] = tested on: HOP-62; test: Growth inhibition of human HOP62 cells assessed as cell growth at 0.01 uM incubated for 48 hrs by sulforhodamine B assay relative to control; type: functional; conditions: HOP-62, 48 h, read-out: Activity
[12] = tested on: U-251; test: Growth inhibition of human U251 cells assessed as cell growth at 0.01 uM incubated for 48 hrs by sulforhodamine B assay relative to control; type: functional; conditions: U-251, 48 h, read-out: Activity
[13] = tested on: NCI-H460; test: Growth inhibition of human NCI-H460 cells assessed as cell growth at 0.1 uM incubated for 48 hrs by sulforhodamine B assay relative to control; type: functional; conditions: NCI-H460, 48 h, read-out: Activity
[14] = tested on: M14; test: Growth inhibition of human M14 cells assessed as cell growth at 0.1 uM incubated for 48 hrs by sulforhodamine B assay relative to control; type: functional; conditions: M14, 48 h, read-out: Activity
[15] = tested on: UO-31; test: Growth inhibition of human UO31 cells assessed as cell growth at 0.1 uM incubated for 48 hrs by sulforhodamine B assay relative to control; type: functional; conditions: UO-31, 48 h, read-out: Activity
[16] = tested on: SNB-75; test: Growth inhibition of human SNB75 cells assessed as cell growth at 1 uM incubated for 48 hrs by sulforhodamine B assay relative to control; type: functional; conditions: SNB-75, 48 h, read-out: Activity
[17] = tested on: M14; test: Growth inhibition of human M14 cells assessed as cell growth at 1 uM incubated for 48 hrs by sulforhodamine B assay relative to control; type: functional; conditions: M14, 48 h, read-out: Activity
[18] = tested on: SK-MEL-5; test: Growth inhibition of human SK-MEL-5 cells assessed as cell growth at 1 uM incubated for 48 hrs by sulforhodamine B assay relative to control; type: functional; conditions: SK-MEL-5, 48 h, read-out: Activity
[19] = tested on: OVCAR-4; test: Growth inhibition of human OVCAR4 cells assessed as cell growth at 1 uM incubated for 48 hrs by sulforhodamine B assay relative to control; type: functional; conditions: OVCAR-4, 48 h, read-out: Activity
[20] = tested on: OVCAR-5; test: Growth inhibition of human OVCAR5 cells assessed as cell growth at 1 uM incubated for 48 hrs by sulforhodamine B assay relative to control; type: functional; conditions: OVCAR-5, 48 h, read-out: Activity
[21] = tested on: BT-549; test: Growth inhibition of human BT549 cells assessed as cell growth at 1 uM incubated for 48 hrs by sulforhodamine B assay relative to control; type: functional; conditions: BT-549, 48 h, read-out: Activity
[22] = tested on: A549; test: Growth inhibition of human A549/ATCC cells assessed as cell growth at 100 uM incubated for 48 hrs by sulforhodamine B assay relative to control; type: functional; conditions: A549, 48 h, read-out: Activity
[23] = tested on: NCI-H522; test: Growth inhibition of human NCI-H522 cells assessed as cell growth at 100 uM incubated for 48 hrs by sulforhodamine B assay relative to control; type: functional; conditions: NCI-H522, 48 h, read-out: Activity
[24] = tested on: SF-268; test: Growth inhibition of human SF268 cells assessed as cell growth at 100 uM incubated for 48 hrs by sulforhodamine B assay relative to control; type: functional; conditions: SF-268, 48 h, read-out: Activity
[25] = tested on: Malme-3M; test: Growth inhibition of human MALME-3M cells assessed as cell growth at 100 uM incubated for 48 hrs by sulforhodamine B assay relative to control; type: functional; conditions: read-out: Activity
[26] = tested on: SK-MEL-28; test: Growth inhibition of human SK-MEL-28 cells assessed as cell growth at 100 uM incubated for 48 hrs by sulforhodamine B assay relative to control; type: functional; conditions: SK-MEL-28, 48 h, read-out: Activity
[27] = tested on: SN12C; test: Growth inhibition of human SN12C cells assessed as cell growth at 100 uM incubated for 48 hrs by sulforhodamine B assay relative to control; type: functional; conditions: read-out: Activity
[28] = read-out: LC50 (the source's name)
[29] = read-out: pLC50 (the source's name) (converted)

COc1cc(Cl)cc(-c2nn(-c3cccc(NC(=O)Nc4cccc(C(F)(F)F)c4)c3)cc2-c2ccncc2)c1
GI50 ([1]; read-out: GI50): 1.13 µM
CC50 [1, 28]: > 100 µM
TGI ([1]; read-out: TGI): 43.5 µM
GI50 ([1]; read-out: pGI50 (converted)): 1.12 µM
CC50 [1, 29]: > 100 µM
TGI ([1]; read-out: pTGI (converted)): 4.37 µM
GI50 ([2]; read-out: GI50): 1.14 µM
CC50 [2, 28]: > 100 µM
TGI ([2]; read-out: TGI): 43.9 µM
GI50 ([2]; read-out: pGI50 (converted)): 1.15 µM
CC50 [2, 29]: > 100 µM
TGI ([2]; read-out: pTGI (converted)): 4.37 µM
GI50 ([3]; read-out: GI50): 2.26 µM
LC50 ([3]; read-out: LC50): > 100 µM
TGI ([3]; read-out: TGI): 11.5 µM
GI50 ([3]; read-out: pGI50 (converted)): 2.24 µM
LC50 ([3]; read-out: pLC50 (converted)): > 100 µM
TGI ([3]; read-out: pTGI (converted)): 28.8 µM
GI50 ([4]; read-out: GI50): 2.56 µM
CC50 [4, 28]: > 100 µM
TGI ([4]; read-out: TGI): 17.1 µM
GI50 ([4]; read-out: pGI50 (converted)): 2.57 µM
CC50 [4, 29]: > 100 µM
TGI ([4]; read-out: pTGI (converted)): 17 µM
GI50 ([5]; read-out: GI50): 1 µM
CC50 [5, 28]: 21.1 µM
TGI ([5]; read-out: TGI): 45.2 µM
GI50 ([5]; read-out: pGI50 (converted)): 1.91 µM
CC50 [5, 29]: 21.4 µM
TGI ([5]; read-out: pTGI (converted)): 4.79 µM
GI50 ([6]; read-out: GI50): 1.29 µM
CC50 [6, 28]: 73.4 µM
TGI ([6]; read-out: TGI): 30.5 µM
GI50 ([6]; read-out: pGI50 (converted)): 1.29 µM
CC50 [6, 29]: 7.41 µM
TGI ([6]; read-out: pTGI (converted)): 3.09 µM
GI50 ([7]; read-out: GI50): 1.43 µM
CC50 [7, 28]: 54.5 µM
TGI ([7]; read-out: TGI): 25.4 µM
GI50 ([7]; read-out: pGI50 (converted)): 1.48 µM
CC50 [7, 29]: 5.5 µM
TGI ([7]; read-out: pTGI (converted)): 2.82 µM
GI50 ([8]; read-out: GI50): 1.94 µM
CC50 [8, 28]: 67.1 µM
TGI ([8]; read-out: TGI): 57.5 µM
GI50 ([8]; read-out: pGI50 (converted)): 1.95 µM
CC50 [8, 29]: 67.6 µM
TGI ([8]; read-out: pTGI (converted)): 6.76 µM
GI50 ([9]; read-out: GI50): 1.48 µM
LC50 ([9]; read-out: LC50): > 100 µM
TGI ([9]; read-out: TGI): 75.7 µM
GI50 ([9]; read-out: pGI50 (converted)): 1.48 µM
LC50 ([9]; read-out: pLC50 (converted)): > 100 µM
TGI ([9]; read-out: pTGI (converted)): 7.59 µM
GI50 ([10]; read-out: GI50): 2.22 µM
CC50 [10, 28]: > 100 µM
TGI ([10]; read-out: TGI): 55 µM
GI50 ([10]; read-out: pGI50 (converted)): 2.24 µM
CC50 [10, 29]: > 100 µM
TGI ([10]; read-out: pTGI (converted)): 5.62 µM
growth at 0.01 µM [11]: 96%
growth at 0.01 µM [12]: 95%
growth at 0.1 µM [13]: 102%
growth at 0.1 µM [14]: 93%
growth at 0.1 µM [15]: 50%
growth at 1 µM [16]: 68%
growth at 1 µM [17]: 64%
growth at 1 µM [18]: 80%
growth at 1 µM [19]: 71%
growth at 1 µM [20]: 88%
growth at 1 µM [21]: 93%
growth at 100 µM [22]: -24%
growth at 100 µM [23]: -78%
growth at 100 µM [24]: -28%
growth at 100 µM [25]: -26%
growth at 100 µM [26]: -25%
growth at 100 µM [27]: -20%
